Test results from patent US9963476B2, “Antioxidant compound having anti atherosclerotic effect and preparation thereof” (Council of Scientific and Industrial Research, priority 2015, dated 2018).

Tests used:
[1] = tested on: nitric oxide generation in HAEC; experiment: Intracellular nitric oxide levels by DAF-2DA fluorescence; type: cell-based, human; details: H2O2 500 μM, 2.5 μM, 4 h
Method: Intracellular nitric oxide levels were monitored by using the Diaminofluorescein-diacetate (DAF-2DA) fluorescence probe. After the treatments, cells were washed with DPBS and incubated in fresh culture medium without fetal bovine serum (FBS). DAF-2DA was added at a final concentration of 5 μM, and the cells were incubated for 30 minutes. The cells were washed twice with DPBS and maintained in culture medium. Fluorescence was monitored by using Olympus fluorescence microscope with FITC filter (λex=488 nm and […]). Fluorescence intensity was calculated by Image-Pro plus7.0 software.
To gain mechanistic insight on Mito-Esc-mediated protection of endothelial cells from oxidant-induced endothelial cell death, initially we hypothesized that Mito-Esc may augment intracellular nitric oxide generation. To study this, HAEC were treated with both Mito-Esc and esculetin in the presence or absence of H2O2 for a period of 4 h and nitric oxide (NO) levels were monitored by DAF-2 derived green fluorescence. Previously, it has been shown that DAF-2 forms a fluorescent triazole-type product in the presence of an oxidant derived from nitric oxide and oxygen interaction (Proc. Natl. Acad. Sci. USA 99: 11127-11132; 2002.; Am. J. Physiol. Regul. Integ. Comp. Physiol. 286:R344-R431; 2004). […] Next, we investigated the possible role of endothelial nitric oxide synthase (eNOS) in mediating the Mito-Esc induced NO generation in HAEC. For this, endothelial cells were treated with various concentrations of Mito-Esc (1-5 μM) for a period of 8 h. […] To further substantiate the results of DAF fluorescence, eNOS phosphorylation was measured in HAEC incubated with either with H2O2 or Ang-II for 8 h in cells pretreated with Mito-Esc or native esculetin. It was observed that both H2O2 and Ang-II caused a reduction in Phospho eNOS (Ser-1177) levels (FIG. 4D). Ang-II treatment imposed a drastic inhibition of phospho-eNOS levels when compared to H2O2 treatment in endothelial cells (FIG. 4D).

[2] = tested on: HAEC; experiment: Cellular uptake: Mito-Esc/esculetin quantified by ESI-MS in cytosolic and mitochondrial fractions of HAEC; type: in vitro ADME, human; details: HAEC, 2.5 μM, 24 h
Method: After the treatment, cells were washed thrice with PBS. Similarly Mito-Esculetin+ Ang-II treatment group, Ang-II alone treatment group and control Apo E^−/− mice aortic tissue was taken. The isolation of mitochondrial and cytosolic extracts was carried out using a commercially available Proteo Extract Cytosol/Mitochondria Fractionation Kit (Cat. no. QIA88-Merck, USA) according to manufacturer's instructions. Initially, mitochondrial and cytosolic fractions were separated using a commercially available kit as mentioned elsewhere. Mito-Esc was quantified in the mitochondrial and cytosolic fractions obtained from HAEC and aorta of ApoE^−/− mice of different treatment groups as mentioned in Animal Experiments section (Table-1). Electrospray ionization (ESI)-MS. ESI-MS (positive mode) measurements were performed using a quadrupole time-of-flight mass spectrometer (QSTAR XL, Applied Biosystems/MDS Sciex, Foster City, Calif., USA). The data acquisition was under the control of Analyst QS software (Applied Biosystems). For the CID (collision-induced dissociation) experiments, the precursor ions were selected using the quadrupole analyzer and the product ions were analyzed using the TOF analyzer.

[3] = tested on: AMPK1-α phosphorylation (Thr-172); experiment: Western blot of AMPK phosphorylation in HAEC; type: cell-based, human; details: H2O2 500 μM, 2.5 μM, 8 h
Method: Previously, it was shown that AMPK co-immunoprecipitates with cardiac endothelial NO synthase (eNOS) and phosphorylates Ser-1177 in the presence of Ca^2+-calmodulin (CaM) to activate eNOS both in vitro and during ischaemia in rat hearts (FEBS Lett. (1999) 443:285-289). To test whether Mito-Esc mediates increased phosphorylation of eNOS through AMPK activation, initially, HAEC were treated various concentrations of Mito-Esc (1-5 μM) for 8 h and AMPK1-α phosphorylation (Thr-172) levels were measured. […] Next, we investigated the phospho-AMPK1-α levels in HAEC treated with H2O2 in the presence or absence of either Mito-Esc or native esculetin.

[4] = tested on: human aortic endothelial cells (HAEC); experiment: Trypan blue cell viability assay, oxidant-induced endothelial cell death; type: cell-based; details: 2.5 μM, 2 h pretreatment, H2O2 500 μM or Ang-II 500 nM, 24 h
Method: Human aortic endothelial cells (HAECs) were obtained from ATCC (Manassas, Va.) and maintained (37° C. 5% CO2) in basal medium supplemented with 10% FBS, VEGF (5 ng/mL), hEGF (5 ng/mL), hFGF (5 ng/mL), IGF-1 (15 ng/mL), ascorbic acid (50 μg/mL), hydrocortisone (1 μg/mL), amphotericin (15 ng/mL), gentamicin (30 ng/mL) and heparin (0.75 Units/mL). Cells used in this study were between passages 4 and 9. Esculetin, Mito-Esc, TPP and nitric oxide synthase inhibitor (L-NAME) were added 2 h before the addition of H2O2 or Ang-II.
At the end of the treatments, cells were harvested and re-suspended in 0.4% trypan blue (Life Technologies) and percent cell viability was counted using cell countess chamber (Life Technologies).
For this, cells were pretreated for 2 h with either Mito-Esc or esculetin before they were incubated with either H2O2 or Ang-II.

[5] = tested on: caspase-3 and -8 activation in HAEC; experiment: Caspase-3 and -8 activity in HAEC lysates; type: cell-based, human; details: 2.5 μM pretreatment
Method: HAEC were washed twice with cold DPBS and lysed in buffer containing 10-mM Tris-HCl, 10-mM NaH2PO4/Na2HPO4 (pH, 7.5). 130-mM NaCl. 1% Triton, and 10-mM sodium pyrophosphate. Cell lysates were incubated with either with caspase-3 fluorogenic substrate (N-acetyl-Asp-Glu-Val-Asp-7-amido-4-methylcoumarin) or caspase-8 fluorogenic substrate (N-acetyl-Ileu-Glu-Thr-Asp-7 amido-4-methylcoumarin) at 37° C. for 1 h. The 7-amido-4-methyl-coumarin liberated was measured in a multi mode reader (PerkinElmer) with λex=380 nm and λem=460 nm.

[6] = tested on: Ang-II-induced atherosclerosis in ApoE−/− mice; experiment: Serum lipid profile of Ang-II treated ApoE−/− mice; type: in vivo; details: serum, ApoE−/− mice, 45 days; Ang-II alone or Ang-II + Mito-Esc
Method: Experiments were conducted in 2-month-old male apolipoprotein E knockout (ApoE^−/−) mice according to the guidelines formulated for care and use of animals in scientific research (ICMR, New Delhi, India) at a CPCSEA (Committee for the Purpose of Control and Supervision of Experiments on Animals) registered animal facility. […] Animals were randomly divided into 3 groups each n=7:1) control 2) Ang-II treatment and 3) Mito-Esculetin+Ang-II treatment. Ang-II and Mito-Esculetin treatment groups received Ang-II (sigma) at a dose of 1.44 mg/kg/day for 6 weeks through sub-cutaneous route where as control group received normal saline. Mito-Esculetin treatment group received the compound at a dose of 0.5 mg/kg/day in normal drinking water. All animals were fed on normal chow throughout the study. After 6 weeks, all groups of animals were sacrificed as per standard protocols for euthanasia.
We further analyzed the vascular remodelling employing histological stains in tissue sections of thoracic aortas. […] In tune with this, we have also measured Mac-3 levels by flow cytometry.

[7] = tested on: Ang-II-induced H2O2 production in HAEC; experiment: H2O2 levels by Amplex red assay; type: cell-based, human; details: Ang-II 500 nM, 16 h
Method: Amplex red reagent was used to detect the released H2O2 from cells. […] Immediately, formation of resorufin fluorescence was measured in multi mode reader (PerkinElmer) with λex=540 and λem=585.
Ang-II is known to increase oxidative stress through increased production of H2O2 (Doughan A K, Harrison D G, Dikalov S I. Circ Res (2008) 102:488-96). […] Further, we assessed the effect of Mito-Esc on H2O2-induced mitochondrial membrane depolarization. HAEC were treated with H2O2 (500 μM) in the presence or absence of Mito-Esc for a period of 16 h and mitochondrial membrane potential was measured using a mitochondrial membrane sensor kit. Mito-Sensor is a cationic dye that fluoresces differently in apoptotic and nonapoptotic cells. […] In apoptotic cells, membrane potentials are altered and the Mito-Sensor dye cannot accumulate in mitochondria and, thus, remain as monomers leading to a green fluorescence.

Compound | H2O2-mediated depletion of NO levels [1] | Cytosolic fraction [2] [nmol/mg protein] | AMPK1-α phosphorylation in the presence of H2O2 [3] | oxidant (H2O2 and Ang-II)-induced endothelial cell death [4] | H2O2 and Ang-II-induced caspase-3 and -8 activation [5] | HDL [6] [mg/dL] | LDL [6] [mg/dL] | Total Cholesterol [6] [mg/dL] | Triglycerides [6] [mg/dL] | VLDL [6] [mg/dL] | H2O2 generation compared to untreated conditions [7]
O=c1ccc2cc(O)c(O)cc2o1 [Esculetin, 6,7-dihydroxycoumarin, reference compound] | did not show any noticeable effect | 6249 ± 235 | significantly decreased | but not esculetin significantly inhibited | marginal effect |  |  |  |  |  | 
Angiotensin-II (DRVYIHPF; Angiotensin-2; UniProt P01019 25-32, looked up) [Ang-II, inducer of oxidative stress and atherosclerosis in the models, reference compound] |  |  |  |  |  | 02.21 ± 1.2 | 423.93 ± 29.6 | 656.19 ± 34.2 | 234.50 ± 21.5 | 46.9 ± 2.2 | around 2.7 fold
c1ccc(P(c2ccccc2)c2ccccc2)cc1 [TPP^+, triphenylphosphonium cation] |  |  |  | did not have any appreciable cytotoxic/cytoprotective effect |  |  |  |  |  |  | 
